The results in this text go back to patent publication US11040959B2, “Diprovocims: a new and potent class of TLR agonists” (The Scripps Research Institute, priority 2016, dated 2021).

Read-outs that look alike come from different tables or passages of the source.

In experiment [1] the test system is differentiated human THP-1 cells. Kind of experiment: stimulated release of TNF-α from differentiated human THP-1 cells (ELISA, dose-response). The experiment is classed as cell-based. The settings on record: for EC50: Homo sapiens. Here is the method:
A screening campaign was conducted with nearly 100,000 compounds [(a) Whitby et al., Acc. Chem. Res. 2012, 45:1698-1709; and (b) Boger et al., Angew. Chem. Int. Ed. 2003, 42:4138-4176], using a newly developed functional assay that measured the stimulated release of TNF-α from treated human THP-1 cells partially differentiated along the macrophage line [unpublished results of the inventors and co-workers]. […] The libraries screened in the efforts represent a unique compound collection populated by nontraditional compounds [(a) Whitby et al., Acc. Chem. Res. 2012, 45:1698-1709; and (b) Boger et al., Angew. Chem. Int. Ed. 2003, 42:4138-4176] designed to target protein-protein [(a) Shaginian et al., J. Am. Chem. Soc. 2009, 131:5564-5572; and (b) Whitby et al., J. Am. Chem. Soc. 2011, 133:10184-10194] or protein-DNA interactions [Stover et al., J. Am. Chem. Soc. 2009, 131:3342-3348] as well as the major enzyme classes [Otrubova et al., Bioorg. Med. Chem. Lett. 2014, 24:3807-3813].
Hits were confirmed in an ELISA assay for stimulated TNF-α release from human PMA differentiated THP-1 cells and this assay was used for establishing dose-response curves and measured EC50 values.
Background: ELISA stands for enzyme-linked immunosorbent assay.

The subject of the next experiment is mouse macrophages. Kind of experiment: stimulated release of TNF-α from mouse macrophages. It counts as cell-based. The settings on record: for EC50: Macrophage. The source says: EC50 values are derived from dose-response curves for the stimulated release of TNF-α from differentiated THP-1 cells or mouse macrophages are shown beneath each appropriate structural formula of Compounds 8-12. Half maximal effective concentration (EC50) refers to the concentration of a drug, antibody or toxicant that induces a response halfway between the baseline and maximum after a specified exposure time. It is commonly used as a measure of a drug's potency.

[2] abbreviates: THP-1, Scheme 1, footnote a, read-out: EC50 TNF-α release from human THP-1 cells.
[3] abbreviates: Mus musculus, Scheme 1, footnote b, read-out: EC50 TNF-α release from mouse macrophages.
[4] abbreviates: THP-1, Table 2, TNF-α release from human THP-1 cells, read-out: EC50 (nM) (THP-1).
Where [5] appears, read: Table 2, TNF-α release from mouse macrophages, read-out: EC50 (nM) (mouse).
Setting [6] is: THP-1, Table 7, TNF-α release from human THP-1 cells, read-out: EC50 (nM) (THP-1).
The mark [7] stands for this setting: Table 7, TNF-α release from mouse macrophages, read-out: EC50 (nM) (mouse).
Where [8] appears, read: THP-1, Table 1, TNF-α release from human THP-1 cells, read-out: EC50 (nM) (THP-1).
Where [9] appears, read: Table 1, TNF-α release from mouse macrophages, read-out: EC50 (nM) (mouse).
Setting [10] is: THP-1, Table 3, TNF-α release from human THP-1 cells, read-out: EC50 (nM) (THP-1).
Setting [11] is: Table 3, TNF-α release from mouse macrophages, read-out: EC50 (nM) (mouse).

By EC50 is commonly meant the concentration needed to bring the measured effect to its halfway point. In the case of `O=C(N[C@@H]1C[C@H]1c1ccccc1)[C@H]1CN(C(=O)c2ccc(C(=O)N3C[C@@H](C(=O)N[C@@H]4C[C@H]4c4ccccc4)[C@H](C(=O)N[C@@H]4C[C@H]4c4ccccc4)C3)cc2)C[C@@H]1C(=O)N[C@@H]1C[C@H]1c1ccccc1` [Compound 24, (3S,4S)-1-(4-((3R,4R)-3,4-Bis(((1R,2S)-2-phenyl-cyclopropyl)carbamoyl)-pyrrolidine-1-carbonyl)-benzoyl)—N^3,N^4-bis((1R,2S)-2-phenylcyclopropyl)-pyrrolidine-3,4-dicarboxamide], the EC50 (in experiment [1] (setting [2]); with mouse macrophages (setting [3])) was greater than 5000 nM throughout.

Turning to `O=C(N[C@H]1C[C@@H]1c1ccccc1)[C@@H]1CN(C(=O)Cc2cccc(CC(=O)N3C[C@@H](C(=O)N[C@H]4C[C@@H]4c4ccccc4)[C@H](C(=O)N[C@H]4C[C@@H]4c4ccccc4)C3)c2)C[C@H]1C(=O)N[C@H]1C[C@@H]1c1ccccc1` [Compound 46, (3S,3′S,4S,4′S)-1,1′-((1,3-Phenylene)diacetyl)-bis(N^3,N^4-bis((1S,2R)-2-phenylcyclopropyl)-pyrrolidine-3,4-dicarboxamide)], the EC50 (in experiment [1] (setting [4]); in the experiment on mouse macrophages (setting [5])) was greater than 5000 nM each time.

As to `O=C(NCCc1ccc(F)cc1)[C@@H]1CN(C(=O)c2ccc(C(=O)N3C[C@@H](C(=O)N[C@H]4C[C@@H]4c4ccccc4)[C@H](C(=O)N[C@H]4C[C@@H]4c4ccccc4)C3)cc2)C[C@H]1C(=O)NCCc1ccc(F)cc1` [Compound 114, (3S,4S)-1-(4-((3S,4S)-3,4-Bis(((1S,2R)-2-phenylcyclopropyl)carbamoyl)-pyrrolidine-1-carbonyl)benzoyl)—N^3,N^4-bis(4-fluorophenethyl)-pyrrolidine-3,4-dicarboxamide], the “activity in stimulating TNF-α release from human THP-1 cells (in words)” value in experiment [1] (tested up to 5 μM where stated) is “active”. For the same compound, the “activity in stimulating TNF-α release from mouse macrophages (in words)” value in the experiment with mouse macrophages (tested up to 5 μM where stated) is “active”.

On to `O=C(NCCc1ccc(F)cc1)[C@@H]1CN(C(=O)C/C=C/CC(=O)N2C[C@@H](C(=O)NCCc3ccc(F)cc3)[C@H](C(=O)NCCc3ccc(F)cc3)C2)C[C@H]1C(=O)NCCc1ccc(F)cc1` [Compound 102, (3S,3′S,4S,4′S)-1,1′-((E)-Hex-3-enedioyl)bis-(N^3,N^4-bis(4-fluorophenethyl)pyrrolidine-3,4-dicarboxamide)], for which the EC50 (in experiment [1] (setting [6]); with mouse macrophages (setting [7])) was greater than 5000 nM each time.

Take `O=C(N[C@H]1C[C@@H]1c1ccccc1)[C@@H]1CN(C(=O)Cc2ccc(CC(=O)N3C[C@@H](C(=O)N[C@H]4C[C@@H]4c4ccccc4)[C@H](C(=O)N[C@H]4C[C@@H]4c4ccccc4)C3)cc2)C[C@H]1C(=O)N[C@H]1C[C@@H]1c1ccccc1` [Compound 48, (3S,3′S,4S,4′S)-1,1′-((1,4-Phenylene)diacetyl)-bis(N^3,N^4-bis((1S,2R)-2-phenylcyclopropyl)-pyrrolidine-3,4-dicarboxamide)]: the EC50 (in experiment [1] (setting [4]); in the experiment on mouse macrophages (setting [5])) was greater than 5000 nM throughout.

In the case of `O=C(NCCc1ccc(F)cc1)[C@@H]1CN(C(=O)[C@@H]2CCC[C@@H](C(=O)N3C[C@@H](C(=O)NCCc4ccc(F)cc4)[C@H](C(=O)NCCc4ccc(F)cc4)C3)C2)C[C@H]1C(=O)NCCc1ccc(F)cc1` [Compound 106, (3S,3′S,4S,4′S)-1,1′-((1R,3R)-Cyclohexane-1,3-dicarbonyl)bis(N^3,N^4-bis(4-fluorophenethyl)-pyrrolidine-3,4-dicarboxamide)], the half-maximal effective concentration (EC50) (in experiment [1] (setting [6]); in the experiment on mouse macrophages (setting [7])) was greater than 5000 nM each time.

Regarding `O=C(N[C@H]1C[C@@H]1c1ccccc1)[C@@H]1CN(C(=O)[C@@H]2CCC[C@H](C(=O)N3C[C@@H](C(=O)N[C@H]4C[C@@H]4c4ccccc4)[C@H](C(=O)N[C@H]4C[C@@H]4c4ccccc4)C3)C2)C[C@H]1C(=O)N[C@H]1C[C@@H]1c1ccccc1` [Compound 41, (3S,3′S,4S,4′S)-1,1′-(cis-1,3-Cyclohexane-dicarbonyl)bis(N^3,N^4-bis((1S,2R)-2-phenyl-cyclopropyl)pyrrolidine-3,4-dicarboxamide)], the EC50 (in experiment [1] (setting [8]); with mouse macrophages (setting [9])) was greater than 5000 nM in each case.

Regarding `O=C(N[C@H]1C[C@@H]1c1ccccc1)[C@@H]1CN(C(=O)c2ccc(-c3ccc(C(=O)N4C[C@@H](C(=O)N[C@H]5C[C@@H]5c5ccccc5)[C@H](C(=O)N[C@H]5C[C@@H]5c5ccccc5)C4)cc3)cc2)C[C@H]1C(=O)N[C@H]1C[C@@H]1c1ccccc1` [Compound 39, (3S,3′S,4S,4′S)-1,1′-(4,4′-Biphenyldicarboxoyl)-bis(N^3,N^4-bis((1S,2R)-2-phenylcyclopropyl)-pyrrolidine-3,4-dicarboxamide)], the figures for the EC50 (in experiment [1] (setting [8]); in the experiment on mouse macrophages (setting [9])) were 90 nM and 2300 nM, respectively.

As to `O=C(N[C@H]1C[C@@H]1c1ccccc1)[C@@H]1CN(C(=O)c2cc(Br)c(C(=O)N3C[C@@H](C(=O)N[C@H]4C[C@@H]4c4ccccc4)[C@H](C(=O)N[C@H]4C[C@@H]4c4ccccc4)C3)cc2Br)C[C@H]1C(=O)N[C@H]1C[C@@H]1c1ccccc1` [Compound 62, (3S,3′S,4S,4′S)-1,1′-(2,5-Dibromoterephthaloyl)-bis(N^3,N^4-bis((1S,2R)-2-phenylcyclopropyl)pyrrolidine-3,4-dicarboxamide)], the EC50 in experiment [1] (setting [10]) is 860 nM; in the experiment with mouse macrophages (setting [11]), greater than 5000 nM.

`O=C(N[C@@H]1C[C@H]1c1ccccc1)[C@H]1CN(C(=O)c2ccc(C(=O)N3C[C@@H](C(=O)N[C@H]4C[C@@H]4c4ccccc4)[C@H](C(=O)N[C@H]4C[C@@H]4c4ccccc4)C3)cc2)C[C@@H]1C(=O)N[C@@H]1C[C@H]1c1ccccc1` [Compound 27, (3S,4S)-1-(4-((3R,4R)-3,4-Bis(((1R,2S)-2-phenyl-cyclopropyl)carbamoyl)-pyrrolidine-1-carbonyl)-benzoyl)—N^3,N^4-bis((1S,2R)-2-phenylcyclopropyl)-pyrrolidine-3,4-dicarboxamide]: the EC50 in experiment [1] (setting [2]) is 20 nM; in the experiment with mouse macrophages (setting [3]) it was no less than 5000 nM.

On to `O=C(NCCc1ccc(F)cc1)[C@@H]1CN(C(=O)c2ccc(C(=O)N3C[C@@H](C(=O)NCCc4ccc(F)cc4)[C@H](C(=O)NCCc4ccc(F)cc4)C3)cc2)C[C@H]1C(=O)NCCc1ccc(F)cc1` [Compound 4, (3S,3′S,4S,4′S)-1,1′-Terephthaloylbis(N^3,N^4-bis(4-fluorophenethyl)-pyrrolidine-3,4-dicarboxamide)], for which the EC50 in experiment [1] (setting [6]) is 50 nM; in experiment [1] (THP-1, running text, read-out: EC50, stimulated release of TNF-α from differentiated human THP-1 cells), 50 nM; in the experiment with mouse macrophages (setting [7]) it was greater than 5000 nM. Besides, in experiment [1] (human THP-1 cells, single enantiomer versus its all racemate mixture), the “fold more potent than the all racemate” value was 3 fold.

Consider `O=C(N[C@@H]1C[C@H]1c1ccccc1)[C@@H]1CN(C(=O)c2ccc(C(=O)N3C[C@@H](C(=O)N[C@@H]4C[C@H]4c4ccccc4)[C@H](C(=O)N[C@@H]4C[C@H]4c4ccccc4)C3)cc2)C[C@H]1C(=O)N[C@@H]1C[C@H]1c1ccccc1` [Compound 20, (3S,3′S,4S,4′S)-1,1′-Terephthaloylbis-(N^3,N^4-bis((1R,2S)-2-phenylcyclopropyl)pyrrolidine-3,4-dicarboxamide)], for which the EC50 (in experiment [1] (setting [2]); in the experiment on mouse macrophages (setting [3])) was greater than 5000 nM throughout.

For `O=C(N[C@H]1C[C@@H]1c1ccccc1)[C@@H]1CN(C(=O)c2ccc(C(=O)N3C[C@@H](C(=O)N[C@H]4C[C@@H]4c4ccccc4)[C@H](C(=O)N[C@H]4C[C@@H]4c4ccccc4)C3)c(Br)c2)C[C@H]1C(=O)N[C@H]1C[C@@H]1c1ccccc1` [Compound 58, (3S,3′S,4S,4′S)-1,1′-(2-Bromoterephthaloyl)-bis(N^3,N^4-bis((1S,2R)-2-phenylcyclopropyl)pyrrolidine-3,4-dicarboxamide)], the EC50 in experiment [1] (setting [10]) amounted to 5 nM; with mouse macrophages (setting [11]), 10 nM.
